Test results published in patent US10053458B2, “Pyrimidine-2,4-diamine derivative and anticancer pharmaceutical composition comprising same as effective ingredient” (KOREA RESEARCH INSTITUTE OF CHEMICAL TECHNOLOGY, priority 2014, dated 2018).
Counter-ions that a name gives are not always drawn. Like-named read-outs stand apart in the source and are kept apart here.

Key:
H2228 = experiment: Cancer cell proliferation inhibition (SRB/MTS), H2228; settings: read-out: H2228 GI50
Protocol: (§1) Cancer cell lines used in the experiments were all human-derived cancer cell lines, specifically H2228 and H3122, which are non-small cell lung cancer cell lines.
(§2) The cancer cell proliferation inhibition was measured using the MTS assay as follows. […] Each culture medium was placed in an incubator for 4 hours, taken out and left at room temperature for 10 minutes.

H3122 = experiment: Cancer cell proliferation inhibition (SRB/MTS), H3122; settings: read-out: H3122 GI50
Protocol: as §1, §2

BaF3 EML4-ALK WT cells = experiment: Cytotoxicity on BaF3 cell transfected with EML4-ALK WT (WST-1); settings: Ba/F3 EML4-ALK, 72 h, read-out: BaF3 EML4-ALK WT, IC50 of the cytotoxicity

| SMILES | GI50 (H2228; Homo sapiens, NCI-H2228, 72 h) | GI50 (H3122; Homo sapiens, NCI-H3122, 72 h) | IC50 (BaF3 EML4-ALK WT cells) | GI50 (H2228) | GI50 (H3122) | GI50 (H2228; hydrochloride) | GI50 (H3122; hydrochloride) |
| --- | --- | --- | --- | --- | --- | --- | --- |
| COc1cc2c(cc1Nc1ncc(Cl)c(Nc3ccccc3S(=O)(=O)C(C)C)n1)C1(CCCC1)CNC2 [Example 14, 5-chloro-N4-(2-(isopropylsulfonyl)phenyl)-N2-(7-methoxy-2,3-dihydro-1H-spiro[cyclopentane-1,4-isoquinoline]-6-yl)pyrimidine-2,4-diamine] | < 50 nM | < 50 nM | – | – | – | – | – |
| COc1cc2c(cc1Nc1ncc(Cl)c(Nc3ccccc3S(=O)(=O)C(C)C)n1)C1(CCCCC1)CN(C(=O)C(F)(F)F)C2 [Example 15, 1-(6-(5-chloro-4-(2-(isopropylsulfonyl)phenylamino)pyrimidin-2-yl)amino-7-methoxy-1H-spiro[cyclohexane-1,4-isoquinoline]-2(3H)-yl)-2,2,2-trifluoroethane-1-one] | < 50 nM | < 50 nM | < 50 nM | – | – | – | – |
| CC(C)COc1cc2c(cc1Nc1ncc(Cl)c(Nc3ccccc3S(=O)(=O)C(C)C)n1)CCN(C(=O)C(F)(F)F)C2 [Example 19, 1-(6-(5-chloro-4-(2-(isopropylsulfonyl)phenylamino)pyrimidin-2-yl)amino-7-isobutoxy-3,4-dihydroisoquinolin-2(1H)-yl)-2,2,2-trifluoroethane-1-one] | < 50 nM | < 50 nM | < 50 nM | – | – | – | – |
| CCC(C)Oc1cc2c(cc1Nc1ncc(Cl)c(Nc3ccccc3S(=O)(=O)C(C)C)n1)CCN(C(=O)C(F)(F)F)C2 (stereo not drawn) [Example 21] | < 50 nM | < 50 nM | < 50 nM | – | – | – | – |
| COc1cc2c(cc1Nc1ncc(Cl)c(Nc3ccccc3S(=O)(=O)C(C)C)n1)CCNC2C (stereo not drawn) [Example 25] | < 50 nM | 8.9 nM | – | – | – | – | – |
| CCC1NCCc2cc(Nc3ncc(Cl)c(Nc4ccccc4S(=O)(=O)C(C)C)n3)c(OC)cc21 (stereo not drawn) [Example 27] | < 50 nM | 8.4 nM | – | – | – | – | – |
| COc1cc2c(cc1Nc1ncc(Cl)c(Nc3ccccc3S(=O)(=O)C(C)C)n1)CCN(C(=O)C(F)(F)F)C2(C)C [Example 32, 1-(6-(5-chloro-4-(2-(isopropylsulfonyl)phenylamino)pyrimidin-2-yl)amino-7-methoxy-1,1-dimethyl-3,4-dihydroisoquinolin-2(1H)-yl)-2,2,2-trifluoroethane-1-one] | < 50 nM | < 50 nM | < 50 nM | – | – | – | – |
| COc1cc2c(cc1Nc1ncc(Cl)c(Nc3ccccc3S(=O)(=O)C(C)C)n1)CCNC2(C)C [Example 33, 5-chloro-N4-(2-(isopropylsulfonyl)phenyl)-N2-(7-methoxy-1,1-dimethyl-1,2,3,4-tetrahydroisoquinolin-6-yl)pyrimidine-2,4-diamine] | – | – | – | 18 nM | 11 nM | – | – |
| COc1cc2c(cc1Nc1ncc(Cl)c(Nc3ccccc3S(=O)(=O)C(C)C)n1)CN(C)CC2 [Example 35, 5-chloro-N4-(2-(isopropylsulfonyl)phenyl)-N2-(6-methoxy-2-methyl-1,2,3,4-tetrahydroisoquinolin-7-yl)pyrimidine-2,4-diamine] | < 50 nM | < 50 nM | – | – | – | – | – |
| COc1cc2c(cc1Nc1ncc(Cl)c(Nc3ccccc3S(=O)(=O)C(C)C)n1)C(C)NCC2 (stereo not drawn) [Example 46] | < 50 nM | < 50 nM | < 50 nM | – | – | – | – |
| CC(C)Oc1cc2c(cc1Nc1ncc(Cl)c(Nc3ccccc3S(=O)(=O)C(C)C)n1)CCNC2(C)C [Example 71, 5-chloro-N4-(2-(isopropylsulfonyl)phenyl)-N2-(7-isopropoxy-1,1-dimethyl-1,2,3,4-tetrahydroisoquinolin-6-yl)pyrimidine-2,4-diamine] | < 50 nM | < 50 nM | < 50 nM | – | – | – | – |
| COc1cc2c(cc1Nc1ncc(Cl)c(Nc3ccccc3S(=O)(=O)C(C)C)n1)C(C)(C)NCC2 [Example 72, 5-chloro-N4-(2-(isopropylsulfonyl)phenyl)-N2-(6-methoxy-1,1-dimethyl-1,2,3,4-tetrahydroisoquinolin-7-yl)pyrimidine-2,4-diamine] | < 50 nM | < 50 nM | < 50 nM | – | – | – | – |
| COc1cc2c(cc1Nc1ncc(Cl)c(Nc3ccccc3S(=O)(=O)C(C)C)n1)CCN1C(=O)CNCC21 (stereo not drawn) [Example 84] | < 50 nM | < 50 nM | – | – | – | – | – |
| COc1cc2c(cc1Nc1ncc(Cl)c(Nc3ccccc3S(=O)(=O)C(C)C)n1)C1CNCC(=O)N1CC2 (stereo not drawn) [Example 97] | < 50 nM | < 50 nM | – | – | – | – | – |
| COc1cc2c(cc1Nc1ncc(Cl)c(Nc3ccccc3S(=O)(=O)C(C)C)n1)CCNC2(C)C [Example 101, 5-chloro-N4-(2-(isopropylsulfonyl)phenyl)-N2-(7-methoxy-1,1-dimethyl-1,2,3,4-tetrahydroisoquinolin-6-yl)pyrimidine-2,4-diamine hydrochloride] | – | – | – | – | – | < 50 nM | < 50 nM |

Further lines, with some results ahead:

| GI50 (H2228; Homo sapiens, NCI-H2228, 72 h) | GI50 (H3122; Homo sapiens, NCI-H3122, 72 h) | SMILES | IC50 (BaF3 EML4-ALK WT cells) | GI50 (H2228) | GI50 (H3122) | GI50 (H2228; hydrochloride) | GI50 (H3122; hydrochloride) |
| --- | --- | --- | --- | --- | --- | --- | --- |
| 85 nM | 280 nM | C[C@@H](Oc1cc(-c2cnn(C3CCNCC3)c2)cnc1N)c1c(Cl)ccc(F)c1Cl [Comparative Example 1, Crizotinib, reference compound] | – | – | – | – | – |
| 15 nM | < 50 nM | COc1cc2c(cc1Nc1ncc(Cl)c(Nc3ccccc3S(=O)(=O)C(C)C)n1)CNC2 [Example 1, 5-chloro-N4-(2-(isopropylsulfonyl)phenyl)-N2-(6-methoxyisoindolin-5-yl)pyrimidine-2,4-diamine] | < 50 nM | – | – | – | – |
| < 50 nM | < 50 nM | COc1cc2c(cc1Nc1ncc(Cl)c(Nc3ccccc3S(=O)(=O)C(C)C)n1)C(C)(C)CN(C(=O)C(F)(F)F)C2 [Example 11, 1-(6-(5-chloro-4-(2-(isopropylsulfonyl)phenylamino)pyrimidin-2-yl)amino-7-methoxy-4,4-dimethyl-3,4-dihydroisoquinolin-2(1H)-yl)-2,2,2-trifluoroethane-1-one] | < 50 nM | – | – | – | – |
| < 50 nM | < 50 nM | COc1cc2c(cc1Nc1ncc(Cl)c(Nc3ccccc3S(=O)(=O)C(C)C)n1)C(C)(C)CNC2 [Example 12, 5-chloro-N4-(2-(isopropylsulfonyl)phenyl)-N2-(7-methoxy-4,4-dimethyl-1,2,3,4-tetrahydroisoquinolin-6-yl)pyrimidine-2,4-diamine] | < 50 nM | – | – | – | – |
| < 50 nM | < 50 nM | COc1cc2c(cc1Nc1ncc(Cl)c(Nc3ccccc3S(=O)(=O)C(C)C)n1)C1(CCCC1)CN(C(=O)C(F)(F)F)C2 [Example 13, 1-(6-(5-chloro-4-(2-(isopropylsulfonyl)phenylamino)pyrimidin-2-yl)amino-7-methoxy-1H-spiro[cyclopentane-1,4-isoquinoline]-2(3H)-yl)-2,2,2-trifluoroethane-1-one] | < 50 nM | – | – | – | – |
| < 50 nM | < 50 nM | COc1cc2c(cc1Nc1ncc(Cl)c(Nc3ccccc3S(=O)(=O)C(C)C)n1)C1(CCCCC1)CNC2 [Example 16, 5-chloro-N4-(2-(isopropylsulfonyl)phenyl)-N2-(7-methoxy-2,3-dihydro-1H-spiro[cyclohexane-1,4-isoquinoline]-6-yl)pyrimidine-2,4-diamine] | < 50 nM | – | – | – | – |
| < 50 nM | < 50 nM | CC(C)Oc1cc2c(cc1Nc1ncc(Cl)c(Nc3ccccc3S(=O)(=O)C(C)C)n1)CCN(C(=O)C(F)(F)F)C2 [Example 17, 1-(6-(5-chloro-4-(2-(isopropylsulfonyl)phenylamino)pyrimidin-2-yl)amino-7-isopropoxy-3,4-dihydroisoquinolin-2(1H)-yl)-2,2,2-trifluoroethane-1-one] | < 50 nM | – | – | – | – |
| < 50 nM | < 50 nM | COc1cc2c(cc1Nc1ncc(Cl)c(Nc3ccccc3S(=O)(=O)C(C)C)n1)CCN(C1CCNCC1)C2 [Example 24] | < 50 nM | – | – | – | – |
| < 50 nM | < 50 nM | COc1cc2c(cc1Nc1ncc(Cl)c(Nc3ccccc3S(=O)(=O)C(C)C)n1)CCNC2C(F)(F)F (stereo not drawn) [Example 26] | < 50 nM | – | – | – | – |
| < 50 nM | 21 nM | COc1cc2c(cc1Nc1ncc(Cl)c(Nc3ccccc3S(=O)(=O)C(C)C)n1)CCNC2C(C)C (stereo not drawn) [Example 28] | 13 nM | – | – | – | – |
| < 50 nM | < 50 nM | COc1cc2c(cc1Nc1ncc(Cl)c(Nc3ccccc3S(=O)(=O)C(C)C)n1)CC1(CC1)N(C(=O)C(F)(F)F)C2C (stereo not drawn) [Example 29] | < 50 nM | – | – | – | – |
| < 50 nM | < 50 nM | COc1cc2c(cc1Nc1ncc(Cl)c(Nc3ccccc3S(=O)(=O)C(C)C)n1)CC1(CC1)NC2C (stereo not drawn) [Example 30, 5-chloro-N4-(2-(isopropylsulfonyl)phenyl)-N2-(7-methoxy-1methyl-1,4-dihydro-2H-spiro[cyclopropane-1,3-isoquinoline]-6-yl)pyrimidine-2,4-diamine] | 5 nM | – | – | – | – |
| < 50 nM | < 50 nM | COc1cc2c(cc1Nc1ncc(Cl)c(Nc3ccccc3S(=O)(=O)C(C)C)n1)CCN(Cc1ccccc1)C2(C)C [Example 31, 5-chloro-N4-(2-(isopropylsulfonyl)phenyl)-N2-(2-benzyl-7-methoxy-1,1-dimethyl-1,2,3,4-tetrahydroisoquinolin-6-yl)pyrimidine-2,4-diamine] | < 50 nM | – | – | – | – |
| < 50 nM | < 50 nM | COc1cc2c(cc1Nc1ncc(Cl)c(Nc3ccccc3S(=O)(=O)C(C)C)n1)C(=O)NCC2 [Example 44] | < 50 nM | – | – | – | – |
| < 50 nM | < 50 nM | CC(C)Oc1cc2c(cc1Nc1ncc(Cl)c(Nc3ccccc3S(=O)(=O)C(C)C)n1)CCNC2C (stereo not drawn) [Example 70, 5-chloro-N4-(2-(isopropylsulfonyl)phenyl)-N2-(7-isopropoxy-1-methyl-1,2,3,4-tetrahydroisoquinolin 6 yl)pyrimidine-2,4-diamine] | < 50 nM | – | – | – | – |
| < 50 nM | < 50 nM | CCC1(C)NCCc2cc(Nc3ncc(Cl)c(Nc4ccccc4S(=O)(=O)C(C)C)n3)c(OC)cc21 (stereo not drawn) [Example 73, 5-chloro-N4-(2-(isopropylsulfonyl)phenyl)-N2-(l-ethyl-7-methoxy-1-methyl-1,2,3,4-tetrahydroisoquinolin-6-yl)pyrimidine-2,4-diamine] | < 50 nM | – | – | – | – |
